Reference: the OPERA property sets (Mansouri et al. 2018)
In brackets after ≈: the same amount, converted by molar mass.

In order of falling logP:
1. Cc1cc(Cc2cc(Cl)ccc2Cl)c(Cl)cc1Cl  7.53
2. Clc1ccc2c(Cl)c(Cl)c(Cl)c(Cl)c2c1  7
3. Cc1c(Cl)c(Cl)c(C(C)C)c(Cl)c1Cl  6.8
4. C[Si]1(C)O[Si](C)(C)O[Si](C)(C)O[Si](C)(C)O1  6.74
5. Cc1cc(Cl)ccc1OCC(=O)OCCCCCC(C)C  6.7
6. c1ccc2cc3c(cc2c1)-c1cccc2cccc-3c12  6.11
7. CC1COCc2cc3c(cc21)C(C)(C)C(C)C3(C)C (stereo unspecified)  5.9
8. COc1ccc(C(C)NCCC(c2ccccc2)c2ccccc2)cc1OC (stereo unspecified)  5.8
9. Clc1cc(Cl)c2[nH]c3c(Cl)cc(Cl)cc3c2c1  5.75
10. c1ccc2c(c1)ccc1nc3ccc4ccccc4c3cc12  5.63
11. CCCCCOC(=O)c1ccccc1C(=O)OCCCCC  5.62
12. Cc1cc(Cl)c(C(C)C)cc1Cl  5.6
13. ClC1=CC2(Cl)C3CC(Cl)C(Cl)C3C1(Cl)C2(Cl)Cl (stereo unspecified)  5.56
14. CC(C)c1cccc(-c2ccccc2)c1  5.33
15. Nc1c(Oc2ccccc2)c(Oc2ccccc2)c(N)c2c1C(=O)c1ccccc1C2=O  5.19
16. CCCCCCCCOC(=O)c1ccc(N)cc1  5.02
17. Clc1cccc2c(Cl)cccc12  4.67
18. COC(=O)C(C)Oc1ccc(Oc2ccc(Cl)cc2Cl)cc1 (stereo unspecified)  4.62
19. Clc1ccc2cccc(Cl)c2c1  4.56
20. CCCCC(OC(Cc1ccccc1)C(=O)N1CCC(OCOC)CC1)C(=O)NC(CC1CCCCC1)C(O)CC(C(=O)NCCNc1noc(N)n1)C(C)C (stereo unspecified)  4.5
21. CC(C)N(C(=O)SCC(Cl)=CCl)C(C)C  4.49
22. O=C(CCCN1CCC(O)(c2ccc(Cl)cc2)CC1)c1ccc(F)cc1  4.3
23. CCCCCCCCCC1(CC)C(=O)NC(=O)NC1=O  4
24. CCCCCCCCNC(=O)n1cc(F)c(=O)[nH]c1=O  3.9
25. CCCCCCCCC(C)=O  3.73
26. CC(C(=O)Nc1ccc([N+](=O)[O-])c(C(F)(F)F)c1)C(F)(F)F (stereo unspecified)  3.71
27. COc1ncnc2c1ncn2C1OC(COC(=O)c2ccccc2)C(O)C1OC(=O)c1ccccc1 (stereo unspecified)  3.39
28. CC(C)c1ccc(C=[N+]([O-])c2ccccc2)cc1  3.37
29. CCCN(CCC)C1COc2c(O)cccc2C1 (stereo unspecified)  3.3
30. CCOC(C(=O)OCc1ccccc1)C(C)C (stereo unspecified)  3.29
31. Oc1cccc(N=C=S)c1  3.23
32. COCCOC(=O)C1=C(C)NC(C)=C(C(=O)OC(C)C)C1c1cccc([N+](=O)[O-])c1 (stereo unspecified)  3.05
33. CCOC(=O)c1ccccc1O  2.95
34. O=C1OC(c2ccc(O)cc2)(c2ccc(O)cc2)c2ccccc21  2.89
35. COC(=O)c1ccc(Cl)cc1  2.87
36. CC(C)CN=C=S  2.82
37. COP(N)(=S)Oc1ccccc1C(=O)OC(C)C (stereo unspecified)  2.7
38. COC(=O)C(C)=CC1C(C(=O)OC)C1(C)C (stereo unspecified)  2.67
39. CCC/N=C(N)/N=C(\N)Nc1ccc(Cl)cc1  2.63
40. Clc1ccc(Cl)c(NC2=NCCN2)c1Cl  2.46
41. CNc1nc(C)nc(C(Cl)(Cl)Cl)n1  2.43
42. CS(=O)CCCOc1ccc2ccccc2c1 (stereo unspecified)  2.42
43. CCCCCCN1CC(C(=O)OC)CC1=O (stereo unspecified)  2.3
44. Cc1ccc(C)c(NCc2cnc3nc(N)nc(N)c3c2C)c1  2.29
45. O=[N+]([O-])c1c(Cl)ncnc1Cl  2.29
46. CN(C)c1ncc(-c2ccncc2)cc1C#N  2.13
47. CCN1CCCC1CNC(=O)c1c(OC)ccc(Br)c1O (stereo unspecified)  2
48. O=C(O)C1C2CCC(O2)C1C(=O)O (stereo unspecified)  1.91
49. CC(=O)Oc1ccc(NC(=O)C(Cl)Cl)cc1  1.9
50. O=C(O)C(=O)Nc1nc(-c2ccc3c(c2)OCCO3)cs1  1.8
51. Cc1nc(N)nc(C(Cl)(Cl)Cl)n1  1.77
52. OCc1ccccc1Cl  1.77
53. N[C@@H](Cc1ccc(O)c(O)c1)C(=O)OCCc1ccccc1  1.76
54. CCCCCCOCCOCCO  1.7
55. COc1ccc(C(N)=S)cc1  1.63
56. CCCCN(CC)N=O  1.63
57. CC(CC(=O)c1ccccc1)C(=O)O (stereo unspecified)  1.62
58. CN1CC=C(c2ccc(N)cc2)CC1  1.48
59. COc1ccc(C(=O)CCC(=O)O)cc1  1.38
60. CCC(C)CO (stereo unspecified)  1.29
61. CC1=C(C)C(=O)C=CC1=O  1.23
62. COc1cccc(OC)c1OCCN(C)C  1.05
63. CC(=O)OCN1C(=O)C(C)=C(C)C1=O  0.65
64. N=C(N)NN=Cc1ccccc1[N+](=O)[O-]  0.53
65. COC1=C(OC)C(=O)C(OC)=C(OC)C1=O  0.41
66. COc1ccc(C=NNC(=N)N)cc1  0.29
67. CNc1ncnc2c1ncn2C1OC(CO)CC1F (stereo unspecified)  0.27
68. Cc1cccc(O[Si]23OCCN(CCO2)CCO3)c1  0.15
69. CCN(C)N=O  0.04
70. CCN1CCCC1=O  -0.04
71. O=C1CCC(c2cccnc2)N1 (stereo unspecified)  -0.3
72. Cn1cccc(O)c1=O  -0.4
73. Cc1cn(C2OC(CO)CC2F)c(=O)[nH]c1=O (stereo unspecified)  -0.44
74. O=C1CC2C(=O)NCC2CN1 (stereo unspecified)  -2.11
75. O=c1[nH]c(=O)c2[nH]c(=O)[nH]c2[nH]1  -2.17
76. Nc1ccc(S(=O)(=O)O)c(N)c1  -4.65

In order of falling solubility:
1. CNC(=O)Oc1cccc2c1OC(C)(C)C2  1450 µM (≈ 320 µg/mL)
2. O=P(OC(Cl)CCCl)(OC(Cl)CCCl)OC(Cl)CCCl (stereo unspecified)  232 µM (≈ 100 µg/mL)
3. CC1CCCCN1CCCOC(=O)c1ccc(Cl)c(Cl)c1 (stereo unspecified)  60.6 µM (≈ 20 µg/mL)
4. Oc1c(O)c(Cl)c(Cl)c(Cl)c1Cl  10.9 µM (≈ 2.7 µg/mL)
5. Clc1cccc2c(Cl)cccc12  1.92 µM (≈ 0.379 µg/mL)
